Data: patent publication US20260285850A1, “SUBSTITUTED OXAZOLIDINONES AND IMIDAZOLINONES AS HERBICIDES” (FMC CORPORATION, priority 2023, published 2026)

Columns and labels:
Assay type in all cases: in vivo
[1] = test system: ducksalad (Heteranthera limosa); experiment: Test B flooded paddy test, visual plant response rating 0-100; conditions: 250 g ai/ha, Flood, applied to paddy water, evaluated after 13 days
Procedure, shortened: (§1)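 Treatment occurs at the 2-leaf stage by adding compound to floodwater standing 3 cm above the soil, a level kept for the whole test. Plants stay in the greenhouse 13 days before visual comparison with controls.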

[2] = test system: sedge, umbrella (small-flower umbrella sedge, Cyperus difformis); experiment: as above; conditions: 250 g ai/ha, Flood, applied to paddy water, evaluated after 13 days
Procedure, shortened: as §1

[3] = test system: barnyardgrass (Echinochloa crusgalli); experiment: as above; conditions: 250 g ai/ha, Flood, applied to paddy water, evaluated after 13 days
Procedure, shortened: as §1

rice (Oryza sativa) = experiment: as above; conditions: 250 g ai/ha, Flood, applied to paddy water, evaluated after 13 days
Procedure, shortened: as §1

[4] = test system: green foxtail (Setaria viridis); experiment: Test A preemergence soil spray, visual injury rating 0-100; conditions: 10 days, 0 = no effect, 100 = complete control
Procedure, shortened: (§2)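 Rating: visual, day 10, untreated plants as reference, 0 no effect to 100 full control. Plants were in loam-sand and were treated either preemergence via directed soil spray or postemergence at the one- to two-leaf stage.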

[5] = test system: ragweed (common ragweed, Ambrosia artemisiifolia); experiment: as above; conditions: 1000 g ai/ha, 10 days, 0 = no effect, 100 = complete control
Procedure, shortened: as §2

[6] = test system: blackgrass (Alopecurus myosuroides); experiment: as above; conditions: 10 days, 0 = no effect, 100 = complete control
Procedure, shortened: as §2

[7] = test system: barnyardgrass (Echinochloa crus-galli); experiment: as above; conditions: 10 days, 0 = no effect, 100 = complete control
Procedure, shortened: as §2

[8] = test system: palmer (palmer amaranth, palmer pigweed, Amaranthus palmeri); experiment: as above; conditions: 10 days, 0 = no effect, 100 = complete control
Procedure, shortened: as §2

[9] = test system: ryegrass, Italian (italian ryegrass, Lolium multiflorum); experiment: as above; conditions: 10 days, 0 = no effect, 100 = complete control
Procedure, shortened: as §2

kochia (Bassia scoparia) [10] = experiment: as above; conditions: 10 days, 0 = no effect, 100 = complete control
Procedure, shortened: as §2

[11] = test system: green foxtail (Setaria viridis); experiment: Test A postemergence application, visual injury rating 0-100; conditions: Postemergence, 10 days; for Foxtail, Green plant response rating (0 to 100 scale): 0 is no effect, 100 is complete control
Procedure, shortened: as §2

[12] = test system: blackgrass (Alopecurus myosuroides); experiment: as above; conditions: Postemergence, 10 days; for Blackgrass plant response rating (0 to 100 scale): 0 is no effect, 100 is complete control
Procedure, shortened: as §2

[13] = test system: horseweed (Erigeron canadensis); experiment: as above; conditions: Postemergence, 10 days; for Horseweed plant response rating (0 to 100 scale): 0 is no effect, 100 is complete control
Procedure, shortened: as §2

[14] = test system: barnyardgrass (Echinochloa crus-galli); experiment: as above; conditions: Postemergence, 10 days; for Barnyardgrass plant response rating (0 to 100 scale): 0 is no effect, 100 is complete control
Procedure, shortened: as §2

kochia (Bassia scoparia) [15] = experiment: as above; conditions: Postemergence, 10 days; for Kochia plant response rating (0 to 100 scale): 0 is no effect, 100 is complete control
Procedure, shortened: as §2

[16] = test system: galium (catchweed bedstraw, Galium aparine); experiment: as above; conditions: Postemergence, 10 days; for Galium plant response rating (0 to 100 scale): 0 is no effect, 100 is complete control
Procedure, shortened: as §2

soybean (Glycine max) [17] = experiment: Test A preemergence soil spray, visual injury rating 0-100; conditions: 10 days, 0 = no effect, 100 = complete control
Procedure, shortened: as §2

[18] = test system: wheat (Triticum aestivum); experiment: as above; conditions: 10 days, 0 = no effect, 100 = complete control
Procedure, shortened: as §2

[19] = test system: oat, wild (wild oat, Avena fatua); experiment: as above; conditions: 10 days, 0 = no effect, 100 = complete control
Procedure, shortened: as §2

corn (Zea mays) [20] = experiment: as above; conditions: 10 days, 0 = no effect, 100 = complete control
Procedure, shortened: as §2

[21] = test system: ragweed (common ragweed, Ambrosia artemisiifolia); experiment: Test A postemergence application, visual injury rating 0-100; conditions: Postemergence, 10 days, 0 is no effect, 100 is complete control
Procedure, shortened: as §2

soybean (Glycine max) [22] = experiment: as above; conditions: Postemergence, 10 days, 0 is no effect, 100 is complete control
Procedure, shortened: as §2

[23] = test system: palmer (palmer amaranth, palmer pigweed, Amaranthus palmeri); experiment: as above; conditions: Postemergence, 10 days, 0 is no effect, 100 is complete control
Procedure, shortened: as §2

[24] = test system: ryegrass, Italian (italian ryegrass, Lolium multiflorum); experiment: as above; conditions: Postemergence, 10 days, 0 is no effect, 100 is complete control
Procedure, shortened: as §2

[25] = test system: wheat (Triticum aestivum); experiment: as above; conditions: Postemergence, 10 days, 0 is no effect, 100 is complete control
Procedure, shortened: as §2

[26] = test system: oat, wild (wild oat, Avena fatua); experiment: as above; conditions: Postemergence, 10 days, 0 is no effect, 100 is complete control
Procedure, shortened: as §2

corn (Zea mays) [27] = experiment: as above; conditions: Postemergence, 10 days, 0 is no effect, 100 is complete control
Procedure, shortened: as §2

COC(=O)C1=CCC(NC(=O)C2(C)CN(c3cc(F)cc(F)c3)C(=O)N2)C1 (mixture of isomers) [Compound 181]
Plant response rating, Ducksalad (0 to 100 scale, 0 is no effect and 100 is complete control) [1]: 30
Plant response rating, Sedge, Umbrella (0 to 100 scale, 0 is no effect and 100 is complete control) [2]: 0
Plant response rating, Barnyardgrass (0 to 100 scale, 0 is no effect and 100 is complete control) [3]: 10
Plant response rating, Rice (0 to 100 scale, 0 is no effect and 100 is complete control) (rice (Oryza sativa)): 15
Foxtail, Green plant response rating (0 to 100 scale) ([4]; 1000 g ai/ha): 90
Ragweed plant response rating (0 to 100 scale) [5]: 0
Blackgrass plant response rating (0 to 100 scale) ([6]; 1000 g ai/ha): 80
Barnyardgrass plant response rating (0 to 100 scale) ([7]; 1000 g ai/ha): 80
Amaranth, Palmer / Pigweed, Palmer plant response rating (0 to 100 scale) ([8]; 1000 g ai/ha): 90
Ryegrass, Italian plant response rating (0 to 100 scale) ([9]; 1000 g ai/ha): 0
Kochia plant response rating (0 to 100 scale) (kochia (Bassia scoparia) [10]; 1000 g ai/ha): 90
Foxtail, Green plant response rating ([11]; 1000 g ai/ha, 0 to 100 scale): 90
Blackgrass plant response rating ([12]; 1000 g ai/ha, 0 to 100 scale): 90
Horseweed plant response rating ([13]; 1000 g ai/ha, 0 to 100 scale): 10
Barnyardgrass plant response rating ([14]; 1000 g ai/ha, 0 to 100 scale): 90
Kochia plant response rating (kochia (Bassia scoparia) [15]; 1000 g ai/ha, 0 to 100 scale): 80
Galium plant response rating ([16]; 1000 g ai/ha, 0 to 100 scale): 90

CCCOC(=O)C1C=CC(NC(=O)C2(C)CN(c3cc(F)cc(F)c3)C(=O)O2)C1 (stereo not shown) [Compound 34]
Plant response rating, Ducksalad (0 to 100 scale, 0 is no effect and 100 is complete control) [1]: 75
Plant response rating, Sedge, Umbrella (0 to 100 scale, 0 is no effect and 100 is complete control) [2]: 75
Plant response rating, Barnyardgrass (0 to 100 scale, 0 is no effect and 100 is complete control) [3]: 90
Plant response rating, Rice (0 to 100 scale, 0 is no effect and 100 is complete control) (rice (Oryza sativa)): 10
Foxtail, Green plant response rating (0 to 100 scale) ([4]; 125 g ai/ha): 100
Foxtail, Green plant response rating (0 to 100 scale) ([4]; 500 g ai/ha): 100
Soybean plant response rating (0 to 100 scale) (soybean (Glycine max) [17]; 125 g ai/ha): 70
Soybean plant response rating (0 to 100 scale) (soybean (Glycine max) [17]; 500 g ai/ha): 80
Blackgrass plant response rating (0 to 100 scale) ([6]; 125 g ai/ha): 90
Blackgrass plant response rating (0 to 100 scale) ([6]; 500 g ai/ha): 100
Barnyardgrass plant response rating (0 to 100 scale) ([7]; 125 g ai/ha): 100
Barnyardgrass plant response rating (0 to 100 scale) ([7]; 500 g ai/ha): 100
Amaranth, Palmer plant response rating (0 to 100 scale) ([8]; 125 g ai/ha): 90
Amaranth, Palmer plant response rating (0 to 100 scale) ([8]; 500 g ai/ha): 100
Ryegrass, Italian plant response rating (0 to 100 scale) ([9]; 125 g ai/ha): 100
Ryegrass, Italian plant response rating (0 to 100 scale) ([9]; 500 g ai/ha): 100
Wheat plant response rating (0 to 100 scale) ([18]; 125 g ai/ha): 90
Wheat plant response rating (0 to 100 scale) ([18]; 500 g ai/ha): 100
Kochia plant response rating (0 to 100 scale) (kochia (Bassia scoparia) [10]; 125 g ai/ha): 90
Kochia plant response rating (0 to 100 scale) (kochia (Bassia scoparia) [10]; 500 g ai/ha): 90
Oat, Wild plant response rating (0 to 100 scale) ([19]; 125 g ai/ha): 90
Oat, Wild plant response rating (0 to 100 scale) ([19]; 500 g ai/ha): 90
Corn plant response rating (0 to 100 scale) (corn (Zea mays) [20]; 125 g ai/ha): 90
Corn plant response rating (0 to 100 scale) (corn (Zea mays) [20]; 500 g ai/ha): 100
Foxtail, Green plant response rating (0 to 100 scale) ([11]; 125 g ai/ha): 90
Foxtail, Green plant response rating (0 to 100 scale) ([11]; 500 g ai/ha): 90
Ragweed plant response rating (0 to 100 scale) ([21]; 125 g ai/ha): 70
Ragweed plant response rating (0 to 100 scale) ([21]; 500 g ai/ha): 80
Soybean plant response rating (0 to 100 scale) (soybean (Glycine max) [22]; 125 g ai/ha): 70
Soybean plant response rating (0 to 100 scale) (soybean (Glycine max) [22]; 500 g ai/ha): 80
Blackgrass plant response rating (0 to 100 scale) ([12]; 125 g ai/ha): 90
Blackgrass plant response rating (0 to 100 scale) ([12]; 500 g ai/ha): 100
Horseweed plant response rating (0 to 100 scale) ([13]; 125 g ai/ha): 90
Horseweed plant response rating (0 to 100 scale) ([13]; 500 g ai/ha): 90
Barnyardgrass plant response rating (0 to 100 scale) ([14]; 125 g ai/ha): 100
Barnyardgrass plant response rating (0 to 100 scale) ([14]; 500 g ai/ha): 100
Amaranth, Palmer / Pigweed, Palmer plant response rating (0 to 100 scale) ([23]; 125 g ai/ha): 80
Amaranth, Palmer / Pigweed, Palmer plant response rating (0 to 100 scale) ([23]; 500 g ai/ha): 100
Ryegrass, Italian plant response rating (0 to 100 scale) ([24]; 125 g ai/ha): 80
Ryegrass, Italian plant response rating (0 to 100 scale) ([24]; 500 g ai/ha): 90
Wheat plant response rating (0 to 100 scale) ([25]; 125 g ai/ha): 70
Wheat plant response rating (0 to 100 scale) ([25]; 500 g ai/ha): 80
Kochia plant response rating (0 to 100 scale) (kochia (Bassia scoparia) [15]; 125 g ai/ha): 70
Kochia plant response rating (0 to 100 scale) (kochia (Bassia scoparia) [15]; 500 g ai/ha): 70
Galium plant response rating (0 to 100 scale) ([16]; 125 g ai/ha): 80
Galium plant response rating (0 to 100 scale) ([16]; 500 g ai/ha): 80
Oat, Wild plant response rating (0 to 100 scale) ([26]; 125 g ai/ha): 100
Oat, Wild plant response rating (0 to 100 scale) ([26]; 500 g ai/ha): 100
Corn plant response rating (0 to 100 scale) (corn (Zea mays) [27]; 125 g ai/ha): 100
Corn plant response rating (0 to 100 scale) (corn (Zea mays) [27]; 500 g ai/ha): 100
